Assay results taken from PubChem BioAssay AID2060350 (Molecular Pharmacology Branch, DTP, NCI, 2025).

Tested on: PDC 521955-158-R6-J3 spheroids, viability
Assay: Anticancer human tumor 521955-158-R6-J3-PDC patient-derived pancreatic carcinoma cell line growth inhibition [TAK]
Conditions: spheroids with HUVEC and MSC; for IC50: curve of first compound; for viability, T/C: stronger effect = lower value
Summary of the method: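 Drug combinations, each paired with TAK-243 or ipatasertib, were tested on multi-cell spheroids of 60% malignant cells, 25% HUVEC and 15% hMSC. Top concentrations were at or near the clinical Cmax (10 microM if undetermined), decreasing by half-log; viability is given as % test/control.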

[1] = second compound 0.3 µM, first compound 0.00316 µM
[2] = second compound 0.3 µM, first compound 0.01 µM
[3] = second compound 0.3 µM, first compound 0.0316 µM
[4] = second compound 0.3 µM, first compound 0.1 µM
[5] = second compound 0.949 µM, first compound 0.00316 µM
[6] = second compound 0.949 µM, first compound 0.01 µM
[7] = second compound 0.949 µM, first compound 0.0316 µM
[8] = second compound 0.949 µM, first compound 0.1 µM
[9] = second compound 3 µM, first compound 0.00316 µM
[10] = second compound 3 µM, first compound 0.01 µM
[11] = second compound 3 µM, first compound 0.0316 µM
[12] = second compound 3 µM, first compound 0.1 µM
[13] = second compound 9.49 µM, first compound 0.00316 µM
[14] = second compound 9.49 µM, first compound 0.01 µM
[15] = second compound 9.49 µM, first compound 0.0316 µM
[16] = second compound 9.49 µM, first compound 0.1 µM
[17] = second compound 30 µM, first compound 0.00316 µM
[18] = second compound 30 µM, first compound 0.01 µM
[19] = second compound 30 µM, first compound 0.0316 µM
[20] = second compound 30 µM, first compound 0.1 µM
[21] = second compound 0.3 µM, first compound 0.316 µM
[22] = second compound 0.3 µM, first compound 1 µM
[23] = second compound 0.949 µM, first compound 0.316 µM
[24] = second compound 0.949 µM, first compound 1 µM
[25] = second compound 3 µM, first compound 0.316 µM
[26] = second compound 3 µM, first compound 1 µM
[27] = second compound 9.49 µM, first compound 0.316 µM
[28] = second compound 9.49 µM, first compound 1 µM
[29] = second compound 30 µM, first compound 0.316 µM
[30] = second compound 30 µM, first compound 1 µM
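Note: spheroids exposed to drugs for 7 days before readout.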
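Throughout, for viability, T/C: 100% = DMSO vehicle control viability.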

Compound: CC(C)n1nc(-c2ccc3oc(N)nc3c2)c2c(N)ncnc21 + CC(C)NCC(C(=O)N1CCN(c2ncnc3c2C(C)CC3O)CC1)c1ccc(Cl)cc1
- IC50 (second compound 0.3 µM): > 100 nM
- IC50 (second compound 0.949 µM): 49.5 nM
- IC50 (second compound 3 µM): 24 nM
- IC50 (second compound 9.49 µM): 16.3 nM
- IC50 (second compound 30 µM): 6.44 nM
- viability, T/C (second compound 0.3 µM, first compound 0.000316 µM): 83.2%
- viability, T/C (second compound 0.3 µM, first compound 0.001 µM): 85%
- viability, T/C [1]: 87.1%
- viability, T/C [2]: 80.5%
- viability, T/C [3]: 70.3%
- viability, T/C [4]: 54.1%
- viability, T/C (second compound 0.949 µM, first compound 0.000316 µM): 70.3%
- viability, T/C (second compound 0.949 µM, first compound 0.001 µM): 74.7%
- viability, T/C [5]: 71.9%
- viability, T/C [6]: 77%
- viability, T/C [7]: 56.3%
- viability, T/C [8]: 40.2%
- viability, T/C (second compound 3 µM, first compound 0.000316 µM): 75.6%
- viability, T/C (second compound 3 µM, first compound 0.001 µM): 76.8%
- viability, T/C [9]: 70%
- viability, T/C [10]: 66.8%
- viability, T/C [11]: 44.6%
- viability, T/C [12]: 29.8%
- viability, T/C (second compound 9.49 µM, first compound 0.000316 µM): 64%
- viability, T/C (second compound 9.49 µM, first compound 0.001 µM): 67.3%
- viability, T/C [13]: 73.9%
- viability, T/C [14]: 55%
- viability, T/C [15]: 40.3%
- viability, T/C [16]: 26.4%
- viability, T/C (second compound 30 µM, first compound 0.000316 µM): 63.2%
- viability, T/C (second compound 30 µM, first compound 0.001 µM): 62.5%
- viability, T/C [17]: 54.5%
- viability, T/C [18]: 47.4%
- viability, T/C [19]: 33.4%
- viability, T/C [20]: 23.9%

Compound: COc1c(OCCCN2CCOCC2)ccc2c3n(c(=NC(=O)c4cnc(N)nc4)nc12)CCN3 + CC(C)NCC(C(=O)N1CCN(c2ncnc3c2C(C)CC3O)CC1)c1ccc(Cl)cc1
- IC50 (second compound 0.3 µM): 38.4 nM
- IC50 (second compound 0.949 µM): 7.43 nM
- IC50 (second compound 3 µM): < 3.16 nM
- IC50 (second compound 9.49 µM): < 3.16 nM
- IC50 (second compound 30 µM): < 3.16 nM
- viability, T/C [1]: 70.9%
- viability, T/C [2]: 63.6%
- viability, T/C [3]: 51.2%
- viability, T/C [4]: 41%
- viability, T/C [21]: 27%
- viability, T/C [22]: 21.6%
- viability, T/C [5]: 52.4%
- viability, T/C [6]: 48.2%
- viability, T/C [7]: 44.9%
- viability, T/C [8]: 37.4%
- viability, T/C [23]: 25.9%
- viability, T/C [24]: 20.2%
- viability, T/C [9]: 46.8%
- viability, T/C [10]: 43.5%
- viability, T/C [11]: 37.8%
- viability, T/C [12]: 32.9%
- viability, T/C [25]: 25.7%
- viability, T/C [26]: 19.5%
- viability, T/C [13]: 43.3%
- viability, T/C [14]: 37.5%
- viability, T/C [15]: 35.8%
- viability, T/C [16]: 29.9%
- viability, T/C [27]: 22.8%
- viability, T/C [28]: 19.8%
- viability, T/C [17]: 41.1%
- viability, T/C [18]: 34.5%
- viability, T/C [19]: 37%
- viability, T/C [20]: 24.6%
- viability, T/C [29]: 18%
- viability, T/C [30]: 15.4%

Compound: Cc1nc(NC(=O)N2CCCC2C(N)=O)sc1-c1ccnc(C(C)(C)C(F)(F)F)c1 (stereo not given) + CC(C)NCC(C(=O)N1CCN(c2ncnc3c2C(C)CC3O)CC1)c1ccc(Cl)cc1
- IC50 (second compound 0.3 µM): > 10000 nM
- IC50 (second compound 0.949 µM): 4490 nM
- IC50 (second compound 3 µM): 2820 nM
- IC50 (second compound 9.49 µM): 509 nM
- IC50 (second compound 30 µM): 481 nM
- viability, T/C [3]: 70.5%
- viability, T/C [4]: 77%
- viability, T/C [21]: 72.7%
- viability, T/C [22]: 63.1%
- viability, T/C (second compound 0.3 µM, first compound 3.16 µM): 66.4%
- viability, T/C (second compound 0.3 µM, first compound 10 µM): 55.6%
- viability, T/C [7]: 63.4%
- viability, T/C [8]: 64%
- viability, T/C [23]: 57.3%
- viability, T/C [24]: 55.3%
- viability, T/C (second compound 0.949 µM, first compound 3.16 µM): 54.3%
- viability, T/C (second compound 0.949 µM, first compound 10 µM): 44.9%
- viability, T/C [11]: 57.2%
- viability, T/C [12]: 62.7%
- viability, T/C [25]: 58.8%
- viability, T/C [26]: 51.5%
- viability, T/C (second compound 3 µM, first compound 3.16 µM): 51.2%
- viability, T/C (second compound 3 µM, first compound 10 µM): 38.9%
- viability, T/C [15]: 63%
- viability, T/C [16]: 58.4%
- viability, T/C [27]: 48.2%
- viability, T/C [28]: 47.2%
- viability, T/C (second compound 9.49 µM, first compound 3.16 µM): 46.9%
- viability, T/C (second compound 9.49 µM, first compound 10 µM): 35.1%
- viability, T/C [19]: 60%
- viability, T/C [20]: 49.2%
- viability, T/C [29]: 54.5%
- viability, T/C [30]: 46.8%
- viability, T/C (second compound 30 µM, first compound 3.16 µM): 38.9%
- viability, T/C (second compound 30 µM, first compound 10 µM): 26.2%
